Source: paper PMC3298469, “A selective and potent CXCR3 antagonist SCH 546738 attenuates the development of autoimmune diseases and delays graft rejection” (BMC Immunology, 2012)

Columns and labels:
[1] = molecular target: T1, dog CXCR3 (Canis lupus familiaris, UniProt Q5KSK8); test: [125I]hCXCL10 competition binding (SPA, Ba/F3 membranes); conditions: read-out: IC50 (nM) (CXCL10)
T1 construct: expressed in transfected cells; host or cells: mouse pro-B Ba/F3 cells (vector pME18Sneo), membrane preparation
T1 sequence (Q5KSK8 whole entry): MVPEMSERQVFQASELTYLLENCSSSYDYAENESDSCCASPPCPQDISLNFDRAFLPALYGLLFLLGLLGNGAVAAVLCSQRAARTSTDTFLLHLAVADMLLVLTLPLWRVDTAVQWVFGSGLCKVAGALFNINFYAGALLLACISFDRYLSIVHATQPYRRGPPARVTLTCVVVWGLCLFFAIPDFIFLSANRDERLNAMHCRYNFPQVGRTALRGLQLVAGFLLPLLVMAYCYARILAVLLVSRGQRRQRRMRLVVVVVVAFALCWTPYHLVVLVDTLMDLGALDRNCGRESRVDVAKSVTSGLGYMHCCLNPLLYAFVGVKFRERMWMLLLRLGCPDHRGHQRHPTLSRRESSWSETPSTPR
Method: (§1) The cDNAs encoding human, mouse and rat CXCR3 were generated based on the published sequences: human (NM_001504), mouse (NM_009910), rat (NM_053415). The cDNAs for monkey and dog CXCR3 were cloned in the lab. All CXCR3 cDNAs were cloned into the mammalian expression vector pME18Sneo, a derivative of the SRα expression vector as described previously. IL-3-dependent mouse pro-B cells Ba/F3 were transfected to express CXCR3 of different species and cell membranes were prepared as described previously.
(§2) A scintillation proximity assay was used for radioligand competition binding assays as described previously with some modifications. For each assay point, 1 µg of membrane was preincubated for 1 hr with 300 µg wheat germ agglutinin (WGA) coated SPA beads (GE Healthcare Life Sciences) in the binding buffer (50 mM HEPES, 1 mM CaCl2, 5 mM MgCl2, 125 mM NaCl, 0.002% NaN3, 1.0% BSA) at room temperature. The beads were spun down, resuspended in the binding buffer and transferred to a 96-well Isoplate (Wallac, Gaithersburg, MD). The indicated concentrations of ^125I-hCXCL10, ^125I-hCXCL11 or ^35S-SCH 535390 with a series of titrations of SCH 546738 were added to start the reaction. After indicated reaction times at room temperature, the amount of radioactivity bound to the SPA beads was determined with a Wallac 1450 Microbeta counter (Wallac).
(§3) It is important to investigate species specificity of SCH 546738 to design in vivo preclinical studies.

[2] = molecular target: T2, mouse CXCR3 (Mus musculus, UniProt O88410); test: as above; conditions: read-out: IC50 (nM) (CXCL10)
T2 construct: expressed in transfected cells; host or cells: mouse pro-B Ba/F3 cells (vector pME18Sneo), membrane preparation
T2 sequence (O88410 whole entry): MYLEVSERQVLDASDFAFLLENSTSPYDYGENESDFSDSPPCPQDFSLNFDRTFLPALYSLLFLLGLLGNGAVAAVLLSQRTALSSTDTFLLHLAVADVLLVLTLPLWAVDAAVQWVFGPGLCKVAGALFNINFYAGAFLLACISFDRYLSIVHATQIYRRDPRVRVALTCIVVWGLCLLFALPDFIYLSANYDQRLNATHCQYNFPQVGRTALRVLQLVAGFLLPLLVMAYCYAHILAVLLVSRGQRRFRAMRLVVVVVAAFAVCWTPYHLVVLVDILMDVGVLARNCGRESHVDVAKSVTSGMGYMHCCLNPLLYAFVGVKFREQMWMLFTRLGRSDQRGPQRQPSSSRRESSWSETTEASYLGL
Method: as §1, §2, §3

[3] = molecular target: T3, rat CXCR3 (Rattus norvegicus, UniProt Q9JII9); test: as above; conditions: read-out: IC50 (nM) (CXCL10)
T3 construct: expressed in transfected cells; host or cells: mouse pro-B Ba/F3 cells (vector pME18Sneo), membrane preparation
T3 sequence (Q9JII9 whole entry): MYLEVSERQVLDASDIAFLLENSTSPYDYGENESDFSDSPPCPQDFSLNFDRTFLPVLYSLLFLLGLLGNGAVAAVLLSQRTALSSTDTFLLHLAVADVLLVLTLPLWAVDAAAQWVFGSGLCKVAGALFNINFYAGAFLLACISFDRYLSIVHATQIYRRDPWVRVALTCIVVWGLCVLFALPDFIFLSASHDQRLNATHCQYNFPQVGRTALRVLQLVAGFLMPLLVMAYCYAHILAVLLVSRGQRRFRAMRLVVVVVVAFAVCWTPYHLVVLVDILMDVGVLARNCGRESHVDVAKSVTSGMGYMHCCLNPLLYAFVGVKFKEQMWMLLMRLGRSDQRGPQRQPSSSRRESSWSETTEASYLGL
Method: as §1, §2, §3

[4] = test system: male B10.RIII mice; test: mouse collagen-induced arthritis (disease score and paw histopathology); format: in vivo
Method: Briefly, 12-week-old male B10.RIII mice (Jackson Laboratories, Bar Harbor, ME) were immunized intradermally at five sites with bovine type II collagen (Elastin Products, Owensville, MO) emulsified with an equal volume of complete Freund's adjuvant (CFA). CFA was comprised of a mixture of incomplete Freund's adjuvant (Difco, Detroit, MI) and heat-killed, freeze-dried Mycobacteria tuberculosis (Ministry of Agriculture, Fisheries & Food, Surrey, England). Each mouse received 300 µg/ml bovine type II collagen and 0.5 mg/ml complete Freund's adjuvant. Mice were boosted intraperitoneally with 100 µg of bovine type II collagen on day 20. Disease progression was monitored by a standardized visual scoring system with a scale from 0 to 12 reflecting the degree of swelling/redness of each paw (maximal score 3 per paw) and the number of paws (maximal 4) involved per individual animal.
After euthanasia, front and hind paws of the animals were dissected and fixed by immersion in 10% phosphate-buffered formalin before decalcification. Following decalcification with Cal-Rite (Richard Allen Scientific, Kalamazoo, MI), formalin fixed tissues were processed and sectioned at 5µm. Paraffin sections were stained with Hematoxylin and Eosin (H&E). […] The changes in joint structures, including cartilage destruction, bone erosion/remodelling and pannus formation were scored as follows: 0 = Normal, 1 = Minimal, 2 = Mild, 3 = Moderate, 4 = Marked, 5 = Severe. A grade of 5.5 was also added to address full-thickness cartilage breach. Cellular infiltrates and inflammation in animal joints were scored as the following: 0 = Normal, 1 = Minimal, 2 = Mild, 3 = Moderate, 4 = Marked.
Statistical significance was evaluated by comparing the vehicle-treated group with the experimental group using unpaired t-test. Differences were considered significant when p values were <0.05.
Sixteen days later which was 4 days prior to receiving a BC II boost (day -4); mice were randomized into treatment groups with approximately 10% of the animals in each group having developed at least one swollen paw. Oral twice daily treatment with SCH 546738 was initiated at this time (day -4) and continued through day 9, with a BC II antigen boost on day 0.
SCH 546738 in 0.4% methylcellulose was administered orally twice daily at 3, 10 and 40 mg/kg (mpk). Dosing was initiated 16 days (day -4) postimmunization and continued through day 9.
Paws collected at day 9 from the vehicle (0.4% methylcellulose) and 40 mpk SCH 546738 groups of two independent experiments were analyzed by histopathology.

[5] = test system: C57BL/6 mice; test: mouse experimental autoimmune encephalomyelitis (MOG35-55); format: in vivo
Method: Female C57BL/6 mice were purchased from Jackson Laboratory (Bar Harbor, ME). For immunization, 150 μg MOG35-55 peptide prepared by Princeton Biomolecules (Langhorne, PA, USA) and 300 μg killed Mycobacterium tuberculosis (Difco, Detroit, MI) were mixed in CFA (Sigma-Aldrich, St Louis, MO, USA) and injected s.c. in two 50-μl injections over the flanks on day 1. Also, 200 ng of pertussis toxin (Sigma-Aldrich, St Louis, MO) was injected i.v. on days 0 and 2. The compound was administered orally twice daily. Dosing with the compound started at day 0, 24 h prior to MOG35-55 immunization (day 1). Mice were monitored daily and assessed for clinical signs of disease in a blinded fashion according to the following criteria: 0, no signs of disease; 1, tail paralysis; 2, limp tail and hind limb weakness; 3, hind limb paralysis; 4, hind limb plus forelimb paralysis; and 5, moribund or dead. Cumulative clinical scores were calculated by adding daily scores from the day of immunization until the end of the experiment. Mean clinical scores at separate days and mean maximal scores were calculated by adding the scores of individual mice and dividing with the number of mice in each group, including mice not developing signs of EAE. […]

[6] = molecular target: CCR7 (Homo sapiens, UniProt P32248); test: human activated T cell chemotaxis induced by CCL19; format: cell-based; set-up: endogenous in cells; conditions: 1, 10 or 100 nM compound
Sequence of CCR7 (P32248 25-378): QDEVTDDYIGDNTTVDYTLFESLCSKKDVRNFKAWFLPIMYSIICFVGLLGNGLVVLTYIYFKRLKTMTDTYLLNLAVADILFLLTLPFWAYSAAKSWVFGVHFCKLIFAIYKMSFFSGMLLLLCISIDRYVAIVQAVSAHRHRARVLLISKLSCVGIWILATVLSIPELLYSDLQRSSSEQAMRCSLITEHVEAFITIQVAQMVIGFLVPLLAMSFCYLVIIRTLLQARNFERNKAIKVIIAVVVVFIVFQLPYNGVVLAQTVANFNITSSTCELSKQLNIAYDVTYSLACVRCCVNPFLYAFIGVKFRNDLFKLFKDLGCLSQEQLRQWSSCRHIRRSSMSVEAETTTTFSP
Method: The preparation of human activated T cells was performed as described previously. Human peripheral blood lymphocytes were prepared by Ficoll-Hypaque centrifugation, depleted of monocytes, and stimulated for 2 days with 1 µg/ml PHA (Murex Diagnostics, Dartford, U.K.) and 100 U/ml IL-2 (Sigma, St. Louis, MO) in RPMI 1640 supplemented with 10% fetal bovine serum (FBS), 2 mM L-glutamine, 100 µg/ml streptomycin, 100 U/ml penecillin, 1% non-essential amino acids and 2 mM HEPES. Following stimulation, peripheral blood lymphocytes were cultured in above media containing 5% conditioned media (Sigma) for up to 15 days.
Human activated T cell chemotaxis assays were performed using 96-well ChemoTx® microplates (Neuro Probe, Inc., Gaithersburg, MD) with a 3 µm filter as per manufacturers' instructions. Activated T cells were washed with RPMI medium twice, and then resuspended in the medium containing 20% FBS. 1.25 × 10^5 cells/reaction were mixed with indicated concentrations of the compound and placed on the filter. The compound and chemokines were mixed and placed in the bottom well of the ChemoTx system. […] The number of migrated cells was measured using the Cell Titer Glo Luminescent Assay from Promega (Madison, WI) as per vendor's instructions. Chemotaxis is expressed as a chemotactic index, which is a ratio versus the one without chemokines (spontaneous migration). […]

[7] = 40 mpk, paws collected on day 9

CC[C@H]1CN(c2nc(N)c(C(N)=O)nc2Cl)CCN1C1CCN(Cc2ccc(Cl)cc2)CC1 [SCH 546738]
IC50 [1]: 6.4 nM
IC50 [2]: 5.9 nM
IC50 [3]: 4.2 nM
effect on disease severity ([4]; 3 mpk oral twice daily): no statistically significant effect
effect on disease score ([4]; 10 mpk oral twice daily, days 7 and 9): protected significantly
effect on disease score ([4]; 40 mpk oral twice daily, day -4 to day 9, days 4, 7 and 9): significant reduction of the disease score
leukocyte infiltration into the joint (histopathology score) [4, 7]: significantly attenuated
structural damage to the bone and cartilage (histopathology score) [4, 7]: significantly attenuated
effect on disease onset and severity ([5]; 30 mpk orally twice daily, alone, days 17 and 19): delayed disease onset and attenuated disease severity
effect on disease onset and severity, combination treatment ([5]; SCH 546738 30 mpk p.o. twice daily combined with IFN-β 1700 ng i.m. daily, compared to either alone): significant additive effect
effect on T cell chemotaxis induced by the CCR7 ligand CCL19 [6]: did not affect
